# Source: patent publication US20040059104A1, “Nucleotide mimics and their prodrugs” (priority 2002, published 2004)
# Read-outs that look alike come from different tables or passages of the source.
# Columns and labels:
# [1] = biological target: T1, HIV Reverse Transcriptase (Type B, 66 kDa subunit) (Human immunodeficiency virus type 1 group M subtype B, UniProt P04585); assay: HIV Reverse Transcriptase inhibition assays (RNA-directed DNA polymerization, PicoGreen fluorescence); type: biochemical; conditions: Table 1; template (homopolymer or heteropolymer RNA) not stated; read-out: Ki, Inhibition of HIV Reverse Transcriptase by Nucleotide Mimics
# T1 construct: purified HIV Reverse Transcriptase (Type B, 66 kDa subunit)
# Procedure: The assays employed to measure inhibition of HIV Reverse Transcriptase (HIV RT) catalyzed/RNA-directed DNA polymerization are described below. The effectiveness of the compounds of the present invention as inhibitors of HIV RT-catalyzed DNA polymerization was measured in the following assays.
# This assay was used to measure the ability of the nucleotide mimics of the present invention to inhibit the enzymatic synthesis of complementary strand DNA from a DNA-primed template of homopolymeric RNA. This assay is a modification of a published procedure (Seville, et al., “Fluorometric Assay for DNA Polymerases and Reverse Transcriptase”, BioTechniques 1996, 21, 664-72).
# The compounds were tested at various concentrations up to 500 μM final concentration. DNA polymerase activity was measured in a reaction buffer containing primed-RNA template and dTTP diluted to appropriate concentrations in assay buffer. Nucleotide mimics of the present invention were diluted in buffer and pipetted into the wells of a 96-well plate. The reaction was initiated by addition of enzyme and allowed to proceed at 37° C. for 10 minutes. The reaction was quenched by addition of 5 μL 0.2 M EDTA, pH 8.0.
# 200 μL of diluted PicoGreen dsDNA Quantitation Reagent (Molecular Probes, Inc, Eugene, Oreg.) was added to each well of a 96-well plate and incubated at room temperature for 5 minutes. Plate wells were read on a microplate fluorometer (Molecular Devices Corp., Sunnyvale, Calif.). The wells were excited at 480 nm and the fluorescence emission intensity (RFU) was measured at 520 nm. The percentage of inhibition was calculated according to the following equation:
# % Inhibition=[1−(RFU in test reaction−RFU in blank)/(RFU in control reaction−RFU in blank)]×100.
# Each inhibitor was titrated over an appropriate range of concentrations, and inhibition constants were determined using the following equations:
# v=Vm[S]/(Km(1+[I]/Ki)+[S])
# Certain compounds of the present invention were also tested to determine their ability to inhibit HIV RT-catalyzed DNA polymerization on a heteropolymeric primed-RNA template in the presence of all four natural deoxynucleotide triphosphate (dNTP) substrates. This assay is a modification of a published procedure (Parker et al., “Mechanism of Inhibition of Human Immunodeficiency Virus Type 1 Reverse Transcriptase and Human DNA Polymerases α, β, and γ by the 5′-Triphosphates of Carbovir,3′-Azido-3′-deoxythymidine,2′-3′-Dideoxyguanosine, and 3′-Deoxythymidine”, J. Biol. Chem. 1991, 266 (3), 1754-62).
# HIV RT DNA polymerase activity was measured in a reaction buffer containing primed-ribosomal RNA template and dNTPs diluted to appropriate concentrations in assay buffer and pipetted into 1.5 mL microcentrifuge tubes. Nucleotide mimics of the present invention were diluted in buffer and tested at various concentrations up to 5 μM final concentration. The reaction was initiated by addition of enzyme and allowed to proceed at 42° C. for 60 to 90 minutes. The reaction was quenched by addition of 12 μL 0.2 M EDTA, pH 8.0.
# 50 μL each of reaction was transferred to the well of a 96-well plate (in duplicate). 200 μL of diluted PicoGreen dsDNA Quantitation Reagent was added to each well of a 96-well plate and incubated at room temperature for 5 minutes. Plate wells were read on a microplate fluorometer. The wells were excited at 480 nm and the fluorescence emission intensity (RFU) was measured at 520 nm. The percentage of inhibition and inhibition constants […] were determined for representative compounds as described above.
# Escherichia coli = assay: Antimicrobial assay, minimal inhibitory concentration; type: cell-based; conditions: for MIC: Escherichia coli, read-out: E. coli MIC
# Procedure: To examine the antimicrobial potential of the nucleotide mimics of the present invention an assay was employed that allowed the screening of a large number of compounds simultaneously. The type of bacteria chosen to screen the compounds are organisms associated with human disease and represent major groups of bacteria based on their structure and metabolism. Bacterial cultures of Escherichia coli and Staphylococcus aureus were incubated overnight at 37° C. in a shaker incubator. A lawn of each overnight bacterial culture was made by plating […] of bacteria on agar plates containing Nutrient Broth. Immediately after plating, sterile blank paper discs were put on top of the lawn and a compound was applied to each blank paper disc. Plates were then incubated overnight and examined for the inhibition of bacterial growth the following day. […] The plates were incubated overnight at 37° C. and then examined spectrophotometrically at 600 nm to determine the minimum concentration of each compound that inhibited replication of bacteria as determined by no increase in absorbance at 600 nm.
# in vitro [2] = assay: in vitro
# Procedure: Typically the total volume used for the experiment was 500 μl. The final concentrations of the reaction components were as follows:
# The reacton mixtures were made up and incubated at 37° C. At appropriate times aliquots of 25 μl were removed and added to 65 μl ice-cold methanol. These solutions were our at −20° C. and typically overnight. After incubation samples were inutes at high speed in a microcentrifuge. The supernatant was nd the extract was dried under vacuum in a LabConco Centrivap Concentrator. The dried extracts were resuspended in dH2O and filtered to remove particulate before analysis on reverse phase HPLC.
# The reverse phase HPLC columns used for the analysis were either a Phenomenex C18 Aqua column (2×100 mm) or the Phenomenex C18 Aqua column (3×150 mm) used with the appropriate guard column. The HPLC was run at 0.2 ml/min (for the 2×100 mm column) or at 0.5 ml/min (for the 3×150 mm column) with the following buffer system: 5 mM tetrabutylammonium acetate, 50 mM ammonium phosphate, and an acetonitrile gradient running from 5% up to as high as 60%. The amount of remaining parent compound at each time point was used to determine the half-life of the compound. […] Unmodified nucleoside triphosphates were used as positive controls.
# in vitro [3] = conditions: for half-life at 500 μM: human, pH 7.4
# Procedure: The stability of compounds in cell extracts was examined as follows:
# Cell lysis buffer was added to cell pellets and the cells frozen and thawed 3× using dry ice. The lysis buffer (LB) was composed of the following: 50 mM Tris-HCl, pH 7.4 (100 μl/ml 10× stock), 20% glycerol (200 μl/ml), and 0.5% Triton X-100 (5 μl/ml). 100 μl of LB was added to each microfuge tube containing 10^7 frozen CEM cells. After the cells were lysed the extracts were centrifuged at high speed in a microcentrifuge for 5 minutes and the clarified cell extract transferred to a new tube. The cell stability reaction mixtures contained concentrations of buffer, magnesium, nucleotide, and cell extract as shown below:
# The reaction mixtures were incubated at 37° C. At each time point, including at time zero, 12.5 μl aliquots were added to 40 μl ice-cold methanol. […] The samples were incubated in methanol for at least 60 minutes and typically overnight at −20° C. prior to further processing. The cell extracts were centrifuged at high speed in refrigerated microcentrifuge for 20 minutes and the supernatant transferred to a new tube. The extract was then dried under vacuum in a LabConco Centrivap Concentrator. The samples were then resuspended in 40 or 50 μl dH2O, filtered to remove any particulate, and analyzed by reverse phase HPLC.
# The reverse phase HPLC columns used for the analysis were either a Phenomenex C18 Aqua column (2×100 mm) or the Phenomenex C18 Aqua column (3×150 mm) used with the appropriate guard column. The HPLC flow rate was either 0.2 ml/min (for the 2×100 mm column) or 0.5 ml/min (for the 3×150 mm column) with the following buffer system: 5 mM tetrabutylammonium acetate, 50 mM ammonium phosphate, and an acetonitrile gradient running from 5% up to as high as 60%. The amount of remaining parent compound at each time point was used to determine the half-life of the compound. […] Unmodified nucleoside triphosphates were used as positive controls.
# [4] = overnight at 37° C., tested 0-200 μg/ml, NA = Not active
# [5] = value in brackets beside the μg/ml value
molecule,measurement,setting,value
"3′-Azido-3′-deoxythymidine 5′-α-P-borano-β,γ-imidotriphosphate [Compound 23]",Ki,[1],105 nM
same,E. coli MIC,Escherichia coli; [4],50 to 100 µg/mL
same,E. coli MIC,Escherichia coli; [5],(99-198) uM
same,"Half-Life, Serum Half-Lives of NTPs and AZT Triphosphate Mimics","in vitro [2]; bovine, serum",36 h
"[BH3-][P+](O)(OCC1OC(n2cc(C)c(=O)[nH]c2=O)CC1N=[N+]=[N-])OP(=O)(O)C(Cl)(Cl)P(=O)(O)O (single isomer, unassigned) [Compound 26-isomer 2, 3′-Azido-3′-deoxythymidine 5′-α-P-borano-β,γ-(dichloromethylene)triphosphate]",Ki,[1],74 nM
same,MIC,Escherichia coli; [4],10 µg/mL
same,MIC,Escherichia coli; [5],17.5 µM
same,half-life at 500 μM,"in vitro [2]; bovine, serum, Serum Half-Lives of NTPs and AZT Triphosphate Mimics",48 h
same,half-life at 500 μM,in vitro [3],> 48 h
"[BH3-][P+](O)(OCC1OC(n2cc(C)c(=O)[nH]c2=O)CC1N=[N+]=[N-])OP(=O)(O)C(F)(F)P(=O)(O)O (single isomer, unassigned) [Compound 27-isomer 2, 3′-Azido-3′-deoxythymidine 5′-α-P-borano-β,γ-(difluoromethylene)triphosphate]",Ki,[1],61 nM
same,E. coli MIC,Escherichia coli; [4],50 µg/mL
same,E. coli MIC,Escherichia coli; [5],(93) uM
"BP(=O)(OCC1OC(n2cc(C)c(=O)[nH]c2=O)CC1N=[N+]=[N-])OP(=O)(O)C(F)(F)P(=O)(O)O (single isomer, unassigned; isomer 3) [Compound 27-Isomer, 3′-Azido-3′-deoxythymidine 5′-α-P-borano-β,γ-(difluoromethylene)triphosphate]","Half-Life, Serum Half-Lives of AZT Triphosphate Mimic Prodrugs","in vitro [2]; bovine, serum",>48 h
"BP(=O)(OC[C@@H]1O[C@H](n2cc(C)c(=O)[nH]c2=O)C[C@H]1N=[N+]=[N-])OP(=O)(O)OP(=O)(O)O (stereo partly drawn) [AZT 5′-α-P-boranotriphosphate, reference compound]","Half-Life, Serum Half-Lives of NTPs and AZT Triphosphate Mimics","in vitro [2]; bovine, serum",6 h
"Cc1cn([C@H]2C[C@H](N=[N+]=[N-])[C@@H](COP(=O)(O)OP(=O)(O)OP(=O)(O)O)O2)c(=O)[nH]c1=O [AZT Triphosphate, 3′-azido-3′-deoxythymidine (AZT, an anti-HIV drug) triphosphate, reference compound]","Half-Life, Serum Half-Lives of NTPs and AZT Triphosphate Mimics","in vitro [2]; bovine, serum",2 h
"Cc1cn([C@H]2C[C@H](N=[N+]=[N-])[C@@H](CO)O2)c(=O)[nH]c1=O [AZT, 3′-azido-3′-deoxythymidine, reference compound]",MIC,Escherichia coli; [4],2 µg/mL
same,MIC,Escherichia coli; [5],7.5 µM
"Nc1ncnc2c1ncn2[C@@H]1O[C@H](COP(=O)(O)OP(=O)(O)OP(=O)(O)O)[C@@H](O)[C@H]1O [Adenosine Triphosphate, reference compound]","Half-Life, Serum Half-Lives of NTPs and AZT Triphosphate Mimics","in vitro [2]; Table 6, 50% fetal calf serum, 37° C., 500 μM, time points through 48 hours",2 h
same,half-life at 500 μM,"in vitro [2]; bovine, 50% fetal calf serum, Serum Half-Lives of AZT Triphosphate Mimic Prodrugs, Table 7, 37° C., 500 μM, time points through 48 hours",1.5 h
same,half-life at 500 μM,"in vitro [2]; bovine, 50% fetal calf serum, Serum Half-Lives of Gemcitibine Diphosphate Mimics and Their Prodrugs, Table 8, 37° C., 500 μM, time points through 48 hours",2.5 h
same,"Half-Life, Cell Extract Half-Lives of AZT 5'-α-P-borano-β,γ-(difluoromethylene) triphosphate Prodrugs","in vitro [3]; Table 10, 50% CEM cell extract, 37° C., 500 μM, time points through 48 hours",.25 h
same,"Half-Life, Cell Extract Half-Lives of Gemcitibine 5'-Methylendiphosphonate and its Prodrugs","in vitro [3]; Table 11, 50% CEM cell extract, 37° C., 500 μM, time points through 48 hours",.25 h
same,half-life at 500 μM,in vitro [3]; 50% CEM cell extract,0.25 h
"Cc1cn([C@H]2C[C@H](N=[N+]=[N-])[C@@H](COP(=O)(O)NP(=O)(O)O)O2)c(=O)[nH]c1=O [Compound 8, 3′-azido-3′-deoxythymidine 5′-imidodiphosphate]",Ki,[1],4400 nM
"BP(=O)(OC[C@H]1O[C@@H](n2cc(C)c(=O)[nH]c2=O)C[C@@H]1N=[N+]=[N-])OP(=O)(O)C(F)P(=O)(O)O (stereo partly drawn) [Compound 25, 3′-Azido-3′-deoxythymidine 5′-α-P-borano-β,γ-(fluoromethylene)triphosphate]",Ki,[1],27 nM
"Cc1cn(C2CC(N=[N+]=[N-])C(COP(O)(=S)OP(=O)(O)C(F)(F)P(=O)(O)O)O2)c(=O)[nH]c1=O (stereo not drawn) [Compound 29, 3′-Azido-3′-deoxythymidine 5′-α-P-thio-β,γ-(difluoromethylene)triphosphate]",Ki,[1],90 nM
"Cc1cn([C@H]2C[C@@H](N=[N+]=[N-])[C@@H](COP(=O)(O)NP(=O)(OCCSC(=O)C(C)(C)C)OCCSC(=O)C(C)(C)C)O2)c(=O)[nH]c1=O [Compound 71, 3′-Azido-3′-deoxythymidine 5′-β,β-O-di(S-pivaloyl-2-thioethyl)imidodiphosphate]",MIC,Escherichia coli; [4],20 µg/mL
same,MIC,Escherichia coli; [5],28 µM
"Cc1cn([C@H]2C[C@H](O)[C@@H](COP(=O)(O)OP(=O)(O)OP(=O)(O)O)O2)c(=O)[nH]c1=O [Thymidine Triphosphate, reference compound]","Half-Life, Serum Half-Lives of NTPs and AZT Triphosphate Mimics","in vitro [2]; bovine, serum, 500 μM",2 h
